Test results: US20190119298A1, “FUSED 3-PHENYLTETRAMIC ACID DERIVATIVES HAVING HERBICIDAL ACTION” (Bayer CropScience Aktiengesellschaft, priority 2016, published 2019)

Key:
Format in all cases: in vivo
Lolium multiflorum [1] = assay: Pre-emergence herbicidal effect; conditions: 320 g/ha, scored visually after 3 weeks vs untreated controls, 100% = plants have died
Method in brief: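 Seeds sown in sandy loam and covered; compounds as WP or EC applied to the soil surface pre-emergence at 600 to 800 L/ha water with 0.2% wetting agent. Greenhouse growth for 3 weeks, then damage scored visually versus untreated controls (100% = plants dead, 0% = like control).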

Echinochloa crus-galli [2] = assay: Post-emergence herbicidal effect; conditions: one-leaf stage, 320 g/ha, assessed visually after about 3 weeks, 100% = plants have died
Method in brief: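 Greenhouse plants in sandy loam were sprayed at the one-leaf stage with WP or EC formulations at 600 to 800 L/ha water with 0.2% wetting agent. After about 3 weeks, damage was scored visually in % against untreated controls (100% = dead).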

Avena fatua [3] = assay: Post-emergence herbicidal effect; conditions: one-leaf stage, 320 g/ha, assessed visually after about 3 weeks, 100% = plants have died
Experimental: (§1) AVEFA: Avena fatua Seeds of monocotyledonous and dicotyledonous weed and crop plants are laid out in sandy loam soil in wood-fibre pots, covered with soil and cultivated in a greenhouse under good growth conditions. 2 to 3 weeks after sowing, the test plants are treated at the one-leaf stage. The compounds of the invention, formulated in the form of wettable powders (WP) or as emulsion concentrates (EC), are then sprayed onto the green parts of the plants as aqueous suspension or emulsion at a water application rate equating to 600 to 800 L/ha with addition of 0.2% wetting agent. After the test plants have been left to stand in the greenhouse under optimal growth conditions for about 3 weeks, the action of the preparations is assessed visually in comparison to untreated controls (herbicidal action in percent (%): 100% activity=the plants have died, 0% activity=like control plants).

Echinochloa crus-galli [4] = assay: Pre-emergence herbicidal effect; conditions: 320 g/ha, scored visually after 3 weeks vs untreated controls, 100% = plants have died
Method in brief: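 Wettable powder or emulsion concentrate sprayed onto soil covering freshly sown seeds in sandy loam, 600 to 800 L/ha water with 0.2% wetting agent. Pots kept in greenhouse. Damage scored visually after 3 weeks against untreated controls, 0-100% activity.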

Alopecurus myosuroides [5] = assay: Pre-emergence herbicidal effect; conditions: 320 g/ha, scored visually after 3 weeks vs untreated controls, 100% = plants have died
Method in brief: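 Seeds sown in sandy loam and covered; WP- or EC-formulated compounds sprayed onto covering soil at 600–800 L/ha water with 0.2% wetting agent. Greenhouse-grown; damage scored visually after 3 weeks versus untreated controls (100% = plants died, 0% = like control).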

Alopecurus myosuroides [6] = assay: Post-emergence herbicidal effect; conditions: one-leaf stage, 320 g/ha, assessed visually after about 3 weeks, 100% = plants have died
Experimental: as §1, with “ALOMY: Alopecurus myosuroides” for “AVEFA: Avena fatua”

Avena fatua [7] = assay: Pre-emergence herbicidal effect; conditions: 320 g/ha, scored visually after 3 weeks vs untreated controls, 100% = plants have died
Method in brief: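 Weed and crop seeds sown in sandy loam were treated pre-emergence on the soil surface with WP or EC formulations at a water rate of 600 to 800 L/ha plus 0.2% wetting agent. Plants grown in a greenhouse; damage scored visually after 3 weeks as percent activity relative to untreated controls (100% = dead).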

Lolium multiflorum [8] = assay: Post-emergence herbicidal effect; conditions: one-leaf stage, 320 g/ha, assessed visually after about 3 weeks, 100% = plants have died
Experimental: as §1, with “LOLMU: Lolium multiflorum” for “AVEFA: Avena fatua”

Setaria viridis [9] = assay: Pre-emergence herbicidal effect; conditions: 320 g/ha, scored visually after 3 weeks vs untreated controls, 100% = plants have died
Method in brief: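 Pre-emergence: WP or EC formulations sprayed onto the soil surface over sown seeds in sandy loam at 600–800 L/ha water with 0.2% wetting agent. Plants kept in a greenhouse; damage scored visually after 3 weeks as % activity versus untreated controls (100% = dead).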

Setaria viridis [10] = assay: Post-emergence herbicidal effect; conditions: one-leaf stage, 320 g/ha, assessed visually after about 3 weeks, 100% = plants have died
Method in brief: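 Greenhouse plants grown in sandy loam were sprayed at the one-leaf stage, 2-3 weeks after sowing. Compounds were applied as WP or EC formulations in 600-800 L/ha water plus 0.2% wetting agent. About 3 weeks later, damage was scored visually against untreated controls (0% = like control, 100% = dead plants).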

CCOC(=O)OC1=C(c2c(C)cc(C)cc2CC)C(=O)N2CCOCCC12 (stereo not drawn) [Ib-1-7]
Pre-emergence action LOLMU (herbicidal activity in percent) (Lolium multiflorum [1]): 100%
Post-emergence effectiveness ECHCG (herbicidal action in percent) (Echinochloa crus-galli [2]): 100%
Post-emergence effectiveness AVEFA (herbicidal action in percent) (Avena fatua [3]): 100%
Pre-emergence action ECHCG (herbicidal activity in percent) (Echinochloa crus-galli [4]): 100%
Pre-emergence action ALOMY (herbicidal activity in percent) (Alopecurus myosuroides [5]): 100%
Post-emergence effectiveness ALOMY (herbicidal action in percent) (Alopecurus myosuroides [6]): 100%
Pre-emergence action AVEFA (herbicidal activity in percent) (Avena fatua [7]): 100%
Post-emergence effectiveness LOLMU (herbicidal action in percent) (Lolium multiflorum [8]): 100%
Pre-emergence action SETVI (herbicidal activity in percent) (Setaria viridis [9]): 100%
Post-emergence effectiveness SETVI (herbicidal action in percent) (Setaria viridis [10]): 100%

CCc1cc(C)cc(C)c1C1=C(OC(C)=O)C2CCOCCN2C1=O (stereo not drawn) [Ib-1-9]
Pre-emergence action LOLMU (herbicidal activity in percent) (Lolium multiflorum [1]): 100%
Post-emergence effectiveness ECHCG (herbicidal action in percent) (Echinochloa crus-galli [2]): 100%
Post-emergence effectiveness AVEFA (herbicidal action in percent) (Avena fatua [3]): 100%
Pre-emergence action ECHCG (herbicidal activity in percent) (Echinochloa crus-galli [4]): 100%
Pre-emergence action ALOMY (herbicidal activity in percent) (Alopecurus myosuroides [5]): 100%
Post-emergence effectiveness ALOMY (herbicidal action in percent) (Alopecurus myosuroides [6]): 100%
Pre-emergence action AVEFA (herbicidal activity in percent) (Avena fatua [7]): 100%
Post-emergence effectiveness LOLMU (herbicidal action in percent) (Lolium multiflorum [8]): 100%
Pre-emergence action SETVI (herbicidal activity in percent) (Setaria viridis [9]): 100%
Post-emergence effectiveness SETVI (herbicidal action in percent) (Setaria viridis [10]): 100%

CCc1cccc(C)c1C1=C(OC(=O)C(C)(C)C)C2CCOCCN2C1=O (stereo not drawn) [Ib-1-14]
Pre-emergence action LOLMU (herbicidal activity in percent) (Lolium multiflorum [1]): 100%
Post-emergence effectiveness ECHCG (herbicidal action in percent) (Echinochloa crus-galli [2]): 100%
Post-emergence effectiveness AVEFA (herbicidal action in percent) (Avena fatua [3]): 100%
Pre-emergence action ECHCG (herbicidal activity in percent) (Echinochloa crus-galli [4]): 100%
Pre-emergence action ALOMY (herbicidal activity in percent) (Alopecurus myosuroides [5]): 80%
Post-emergence effectiveness ALOMY (herbicidal action in percent) (Alopecurus myosuroides [6]): 90%
Pre-emergence action AVEFA (herbicidal activity in percent) (Avena fatua [7]): 90%
Post-emergence effectiveness LOLMU (herbicidal action in percent) (Lolium multiflorum [8]): 100%
Pre-emergence action SETVI (herbicidal activity in percent) (Setaria viridis [9]): 100%
Post-emergence effectiveness SETVI (herbicidal action in percent) (Setaria viridis [10]): 100%

CCc1cc(C)cc(C)c1C1=C(OC(=O)C(C)(C)C)C2CCOCCN2C1=O (stereo not drawn) [Ib-1-8]
Pre-emergence action LOLMU (herbicidal activity in percent) (Lolium multiflorum [1]): 100%
Post-emergence effectiveness ECHCG (herbicidal action in percent) (Echinochloa crus-galli [2]): 100%
Post-emergence effectiveness AVEFA (herbicidal action in percent) (Avena fatua [3]): 100%
Pre-emergence action ECHCG (herbicidal activity in percent) (Echinochloa crus-galli [4]): 100%
Pre-emergence action ALOMY (herbicidal activity in percent) (Alopecurus myosuroides [5]): 100%
Post-emergence effectiveness ALOMY (herbicidal action in percent) (Alopecurus myosuroides [6]): 100%
Pre-emergence action AVEFA (herbicidal activity in percent) (Avena fatua [7]): 100%
Post-emergence effectiveness LOLMU (herbicidal action in percent) (Lolium multiflorum [8]): 100%
Pre-emergence action SETVI (herbicidal activity in percent) (Setaria viridis [9]): 100%
Post-emergence effectiveness SETVI (herbicidal action in percent) (Setaria viridis [10]): 100%

Cc1cc(C)c(C2=C(O)C3CCOCCN3C2=O)c(C)c1 (stereo not drawn) [Ia-1-1]
Pre-emergence action LOLMU (herbicidal activity in percent) (Lolium multiflorum [1]): 100%
Post-emergence effectiveness ECHCG (herbicidal action in percent) (Echinochloa crus-galli [2]): 100%
Post-emergence effectiveness AVEFA (herbicidal action in percent) (Avena fatua [3]): 100%
Pre-emergence action ECHCG (herbicidal activity in percent) (Echinochloa crus-galli [4]): 100%
Pre-emergence action ALOMY (herbicidal activity in percent) (Alopecurus myosuroides [5]): 100%
Post-emergence effectiveness ALOMY (herbicidal action in percent) (Alopecurus myosuroides [6]): 100%
Pre-emergence action AVEFA (herbicidal activity in percent) (Avena fatua [7]): 100%
Post-emergence effectiveness LOLMU (herbicidal action in percent) (Lolium multiflorum [8]): 100%
Pre-emergence action SETVI (herbicidal activity in percent) (Setaria viridis [9]): 90%
Post-emergence effectiveness SETVI (herbicidal action in percent) (Setaria viridis [10]): 100%

CCc1cc(Cl)cc(OC)c1C1=C(OC(=O)C(C)(C)C)C2CCOCCN2C1=O (stereo not drawn) [Ib-1-18]
Pre-emergence action LOLMU (herbicidal activity in percent) (Lolium multiflorum [1]): 100%
Post-emergence effectiveness ECHCG (herbicidal action in percent) (Echinochloa crus-galli [2]): 100%
Post-emergence effectiveness AVEFA (herbicidal action in percent) (Avena fatua [3]): 100%
Pre-emergence action ECHCG (herbicidal activity in percent) (Echinochloa crus-galli [4]): 100%
Pre-emergence action ALOMY (herbicidal activity in percent) (Alopecurus myosuroides [5]): 100%
Post-emergence effectiveness ALOMY (herbicidal action in percent) (Alopecurus myosuroides [6]): 100%
Pre-emergence action AVEFA (herbicidal activity in percent) (Avena fatua [7]): 100%
Post-emergence effectiveness LOLMU (herbicidal action in percent) (Lolium multiflorum [8]): 100%
Pre-emergence action SETVI (herbicidal activity in percent) (Setaria viridis [9]): 100%
Post-emergence effectiveness SETVI (herbicidal action in percent) (Setaria viridis [10]): 100%

CCc1cc(C)cc(CC)c1C1=C(O)C2CCOCCN2C1=O (stereo not drawn) [Example Ia-1-3, 8-(2,6-Diethyl-4-methylphenyl)-9-hydroxy-1,4,5,9a-tetrahydropyrrolo[1,2-d][1,4]oxazepin-7(2H)-one]
Pre-emergence action LOLMU (herbicidal activity in percent) (Lolium multiflorum [1]): 100%
Post-emergence effectiveness ECHCG (herbicidal action in percent) (Echinochloa crus-galli [2]): 100%
Post-emergence effectiveness AVEFA (herbicidal action in percent) (Avena fatua [3]): 100%
Pre-emergence action ECHCG (herbicidal activity in percent) (Echinochloa crus-galli [4]): 100%
Pre-emergence action ALOMY (herbicidal activity in percent) (Alopecurus myosuroides [5]): 100%
Post-emergence effectiveness ALOMY (herbicidal action in percent) (Alopecurus myosuroides [6]): 100%
Pre-emergence action AVEFA (herbicidal activity in percent) (Avena fatua [7]): 100%
Post-emergence effectiveness LOLMU (herbicidal action in percent) (Lolium multiflorum [8]): 100%
Pre-emergence action SETVI (herbicidal activity in percent) (Setaria viridis [9]): 100%
Post-emergence effectiveness SETVI (herbicidal action in percent) (Setaria viridis [10]): 100%

CCc1cc(Cl)cc(OC)c1C1=C(O)C2CCOCCN2C1=O (stereo not drawn) [Ia-1-6]
Pre-emergence action LOLMU (herbicidal activity in percent) (Lolium multiflorum [1]): 100%
Post-emergence effectiveness ECHCG (herbicidal action in percent) (Echinochloa crus-galli [2]): 100%
Post-emergence effectiveness AVEFA (herbicidal action in percent) (Avena fatua [3]): 100%
Pre-emergence action ECHCG (herbicidal activity in percent) (Echinochloa crus-galli [4]): 100%
Pre-emergence action ALOMY (herbicidal activity in percent) (Alopecurus myosuroides [5]): 100%
Post-emergence effectiveness ALOMY (herbicidal action in percent) (Alopecurus myosuroides [6]): 100%
Pre-emergence action AVEFA (herbicidal activity in percent) (Avena fatua [7]): 100%
Post-emergence effectiveness LOLMU (herbicidal action in percent) (Lolium multiflorum [8]): 100%
Pre-emergence action SETVI (herbicidal activity in percent) (Setaria viridis [9]): 100%
Post-emergence effectiveness SETVI (herbicidal action in percent) (Setaria viridis [10]): 100%

CCc1cc(C)cc(CC)c1C1=C(OC(=O)C(C)(C)C)C2CCOCCN2C1=O (stereo not drawn) [Ib-1-3]
Pre-emergence action LOLMU (herbicidal activity in percent) (Lolium multiflorum [1]): 100%
Post-emergence effectiveness ECHCG (herbicidal action in percent) (Echinochloa crus-galli [2]): 100%
Post-emergence effectiveness AVEFA (herbicidal action in percent) (Avena fatua [3]): 100%
Pre-emergence action ECHCG (herbicidal activity in percent) (Echinochloa crus-galli [4]): 100%
Pre-emergence action ALOMY (herbicidal activity in percent) (Alopecurus myosuroides [5]): 100%
Post-emergence effectiveness ALOMY (herbicidal action in percent) (Alopecurus myosuroides [6]): 100%
Pre-emergence action AVEFA (herbicidal activity in percent) (Avena fatua [7]): 100%
Post-emergence effectiveness LOLMU (herbicidal action in percent) (Lolium multiflorum [8]): 100%
Pre-emergence action SETVI (herbicidal activity in percent) (Setaria viridis [9]): 100%
Post-emergence effectiveness SETVI (herbicidal action in percent) (Setaria viridis [10]): 100%
